From patent US20120005774A1, “USE OF TREHALASE TO OBTAIN DROUGHT RESISTANCE IN PLANTS” (KATHOLIEKE UNIVERSITEIT LEUVEN, K.U. LEUVEN R & D, priority 2009, published 2012)

Key:
Arabidopsis seedlings [1] = settings: absence of Val A; cited from earlier work
Arabidopsis seedlings [2] = assay: Seedling growth assay on trehalose with or without Val A; format: in vivo, Arabidopsis thaliana; settings: for sensitivity to trehalose, root length: with Val A
Description: FIG. 3: Growth phenotypes of AtTRE1 mutants on trehalose. Panel A, GT tre KO lines and wt Ler with Val A. Panel B, SA TRE OX lines and wt Col with Val A. Panel C, GT tre KO lines and wt Ler without Val A. Panel D, SA TRE OX lines and wt Col without Val A. Approximately 30 seedlings/treatment were grown on vertical plates, 1× MS without suc, in a 12 hours-12 hours day/night cycle, for 10 days with 0, 0.5, 1, 5, 10, or 25 mM trehalose. Data are means±SE.
FIG. 4: Growth phenotypes of AtTRE1 mutants on high trehalose. Seedlings grown in the same conditions as described in FIG. 3, without Val A, and with higher concentration of trehalose: 50, 100, 150, and 200 mM. Representative seedlings are shown.
Vapor-sterilized seeds were sown after a 48-hour stratification period in vertically or horizontally oriented Petri dishes on a full strength (or mentioned otherwise) Murashige and Skoog Salt Mixture including vitamins (MS) medium (4.3 g/l) with MES (0.5 g/l) and solidified with Phytagar (8 g/l) (Duchefa, Haarlem, The Netherlands). The media was enriched with sucrose/glucose (0-6%) or trehalose, depending on the tested conditions, which are specified. Val A was added in a concentration of 10 μM.
In our growth assay, no extra sugar was added to the media.

trehalase = molecular target: T1, trehalase (Arabidopsis thaliana, UniProt Q9SU50); settings: cited from earlier work
T1 sequence (Q9SU50 1-626): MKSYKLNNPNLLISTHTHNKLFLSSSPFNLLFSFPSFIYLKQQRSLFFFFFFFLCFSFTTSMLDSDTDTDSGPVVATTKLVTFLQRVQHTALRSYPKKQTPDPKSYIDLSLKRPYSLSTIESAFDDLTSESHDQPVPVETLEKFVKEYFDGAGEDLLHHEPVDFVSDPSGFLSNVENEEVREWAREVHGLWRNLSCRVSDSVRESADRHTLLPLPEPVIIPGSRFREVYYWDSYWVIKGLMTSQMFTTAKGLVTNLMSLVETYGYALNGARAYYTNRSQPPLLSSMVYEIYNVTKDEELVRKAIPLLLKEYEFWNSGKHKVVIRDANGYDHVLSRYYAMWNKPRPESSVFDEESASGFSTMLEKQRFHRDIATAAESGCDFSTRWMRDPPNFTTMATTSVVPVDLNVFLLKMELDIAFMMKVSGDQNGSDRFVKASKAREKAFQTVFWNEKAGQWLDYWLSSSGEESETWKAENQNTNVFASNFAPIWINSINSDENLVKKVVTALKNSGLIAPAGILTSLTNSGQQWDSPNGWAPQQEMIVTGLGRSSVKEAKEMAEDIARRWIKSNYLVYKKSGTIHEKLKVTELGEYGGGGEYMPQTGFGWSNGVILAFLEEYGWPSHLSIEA

plants = settings: Val A treatment, cited from earlier work

Question: With `OC[C@H]1O[C@H](O[C@H]2O[C@H](CO)[C@@H](O)[C@H](O)[C@H]2O)[C@H](O)[C@@H](O)[C@@H]1O` [trehalose, α-D-glucopyranosyl-1,1-α-D-glucopyranoside] as the molecule, how does the “development of wild-type seedlings on high trehalose concentrations” value (Arabidopsis seedlings [1]) read?
Answer: arrest with development shortly after germination

Question: What about the “sensitivity to trehalose, root length” value (Arabidopsis seedlings [2]; Col wild-type plants, 10 mM trehalose) of the same molecule?
Answer: more dramatic decrease in root length

Question: What about the “development with increasing trehalose concentrations” value (Arabidopsis seedlings [2]; GT tre KO mutants versus wild-type Ler, without Val A) of the same molecule?
Answer: significantly more affected in development

Question: And the “sensitivity to trehalose, root length” value (Arabidopsis seedlings [2]; Ler wild-type plants)?
Answer: rather gradual inhibitory effect

Question: And the “resistance to higher trehalose levels” value (Arabidopsis seedlings [2]; SA TRE OX plants versus wild-type controls, in the presence of Val A)?
Answer: significantly more resistant

Question: What about the “sensitivity to high trehalose concentrations” value (Arabidopsis seedlings [2]; SA TRE OX plants versus wild-type seedlings, without Val A, up to 200 mM) of the same molecule?
Answer: insensitive

Question: What about the “root growth and development of wild-type seedlings” value (Arabidopsis seedlings [2]; gradually increased trehalose (0-25 mM) in the presence of Val A 10 μM, no extra sugar, 10 days) of the same molecule?
Answer: increased inhibition of root growth and development

Question: For `OCC1=C[C@@H](N[C@H]2C[C@H](CO)[C@@H](O[C@H]3O[C@@H](CO)[C@H](O)[C@@H](O)[C@@H]3O)[C@H](O)[C@H]2O)[C@H](O)[C@@H](O)[C@@H]1O` [Validamycin A], which trehalase activity (trehalase) is on record?
Answer: specifically inhibits trehalase activity

Question: What about the phytotoxicity (plants; adult plants) of the same molecule?
Answer: causes phytotoxicity

Question: And the “phenotypic irregularities in seedlings” value (plants; seedlings)?
Answer: no phenotypic irregularities

Question: What about the “inhibition of trehalase activity in the OX lines” value (Arabidopsis seedlings [2]; Val A 10 μM, SA TRE OX lines, concluded from growth on trehalose) of the same molecule?
Answer: not sufficient to inhibit increased trehalase activity
